In patent US10544143B2, “4-azaindole compounds” (BRISTOL-MYERS SQUIBB COMPANY, priority 2017, dated 2020):
Read-outs that look alike come from different tables or passages of the source.

What was measured:
human TLR8 = human TLR8 (Homo sapiens (Human), UniProt Q9NR97); assay: TLR8 inhibition reporter assay (HEK-Blue SEAP); conditions: R848 15.9 μM;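 also: SEAP driven by IFN-β minimal promoter carrying NF-κB and AP-1 sites, compounds dosed 0.05 nM to 50 µM for 22 h, inhibition scaled between agonist-plus-DMSO and reference-inhibitor wells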
human TLR9 = human TLR9 (Homo sapiens (Human), UniProt Q9NR96); assay: TLR9 inhibition reporter assay (HEK-Blue SEAP); conditions: ODN2006 5 nM;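 also: SEAP driven by an IFN-β minimal promoter with NF-κB and AP-1 sites, read after 22 h, compounds dosed 0.05 nM–50 µM, inhibition scaled between agonist plus DMSO and reference-inhibitor wells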
human TLR7 = human TLR7 (Homo sapiens (Human), UniProt Q9NYK1); assay: TLR7 inhibition reporter assay (HEK-Blue SEAP); format: cell-based; conditions: HEK-Blue human TLR7 cells, gardiquimod 7.5 μM
[1] = read-out: TLR8 IC50, HEK-Blue human TLR8 cells
[2] = read-out: TLR9 IC50, HEK-Blue human TLR9 cells
[3] = TLR8 IC50, HEK-Blue human TLR8 cells
[4] = TLR9 IC50, HEK-Blue human TLR9 cells

human TLR7, sequence (Q9NYK1 27-1049): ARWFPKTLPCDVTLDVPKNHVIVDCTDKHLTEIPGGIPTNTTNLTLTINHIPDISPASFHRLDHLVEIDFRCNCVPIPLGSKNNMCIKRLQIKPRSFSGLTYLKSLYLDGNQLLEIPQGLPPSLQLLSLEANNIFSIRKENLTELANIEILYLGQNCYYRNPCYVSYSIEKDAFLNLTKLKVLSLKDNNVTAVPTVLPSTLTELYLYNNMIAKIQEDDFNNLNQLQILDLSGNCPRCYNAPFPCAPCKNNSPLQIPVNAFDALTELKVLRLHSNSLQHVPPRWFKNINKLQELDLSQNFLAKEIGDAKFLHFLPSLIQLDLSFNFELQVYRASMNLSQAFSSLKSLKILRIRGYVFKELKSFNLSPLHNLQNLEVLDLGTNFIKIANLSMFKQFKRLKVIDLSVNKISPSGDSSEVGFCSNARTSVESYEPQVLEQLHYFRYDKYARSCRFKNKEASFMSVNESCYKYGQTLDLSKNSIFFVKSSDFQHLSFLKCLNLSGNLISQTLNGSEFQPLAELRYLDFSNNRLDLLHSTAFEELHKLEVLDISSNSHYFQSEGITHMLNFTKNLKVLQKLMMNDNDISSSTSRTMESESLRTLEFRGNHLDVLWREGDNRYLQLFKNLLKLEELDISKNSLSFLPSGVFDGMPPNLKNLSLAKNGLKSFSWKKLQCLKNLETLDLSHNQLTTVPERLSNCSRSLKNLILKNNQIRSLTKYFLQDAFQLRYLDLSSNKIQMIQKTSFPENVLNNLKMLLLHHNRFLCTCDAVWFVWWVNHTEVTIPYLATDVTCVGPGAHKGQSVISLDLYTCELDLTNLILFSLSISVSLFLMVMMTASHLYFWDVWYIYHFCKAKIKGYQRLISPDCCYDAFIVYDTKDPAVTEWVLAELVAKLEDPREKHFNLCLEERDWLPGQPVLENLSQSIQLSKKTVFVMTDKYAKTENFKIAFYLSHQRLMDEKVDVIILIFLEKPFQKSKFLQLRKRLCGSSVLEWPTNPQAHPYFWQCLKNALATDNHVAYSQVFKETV
human TLR9, sequence (Q9NR96 26-1032): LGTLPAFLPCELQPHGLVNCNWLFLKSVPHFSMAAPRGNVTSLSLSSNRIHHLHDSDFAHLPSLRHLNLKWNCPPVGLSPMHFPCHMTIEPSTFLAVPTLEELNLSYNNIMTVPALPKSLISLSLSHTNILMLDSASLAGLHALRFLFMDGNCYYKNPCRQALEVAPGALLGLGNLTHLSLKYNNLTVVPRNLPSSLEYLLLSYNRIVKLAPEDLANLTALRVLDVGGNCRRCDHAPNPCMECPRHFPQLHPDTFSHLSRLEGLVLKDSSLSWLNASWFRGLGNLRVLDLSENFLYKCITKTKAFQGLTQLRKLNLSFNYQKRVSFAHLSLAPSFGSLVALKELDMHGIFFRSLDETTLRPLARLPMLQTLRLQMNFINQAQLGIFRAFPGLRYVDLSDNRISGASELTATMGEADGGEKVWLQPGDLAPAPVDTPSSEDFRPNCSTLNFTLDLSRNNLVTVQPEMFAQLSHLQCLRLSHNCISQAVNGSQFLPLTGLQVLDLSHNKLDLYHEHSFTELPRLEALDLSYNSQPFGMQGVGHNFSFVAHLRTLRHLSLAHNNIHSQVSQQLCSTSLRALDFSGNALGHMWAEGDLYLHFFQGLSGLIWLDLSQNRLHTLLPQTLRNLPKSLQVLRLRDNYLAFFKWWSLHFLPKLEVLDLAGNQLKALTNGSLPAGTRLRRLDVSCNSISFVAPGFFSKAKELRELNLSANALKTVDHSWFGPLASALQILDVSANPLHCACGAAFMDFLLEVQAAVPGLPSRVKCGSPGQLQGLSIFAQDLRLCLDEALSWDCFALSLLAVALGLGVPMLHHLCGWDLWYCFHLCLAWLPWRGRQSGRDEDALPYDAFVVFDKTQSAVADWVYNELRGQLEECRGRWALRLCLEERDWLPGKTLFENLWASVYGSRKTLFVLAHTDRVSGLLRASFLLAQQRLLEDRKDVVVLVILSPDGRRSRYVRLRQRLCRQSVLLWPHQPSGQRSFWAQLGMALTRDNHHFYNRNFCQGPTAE
human TLR8, sequence (Q9NR97 27-1041): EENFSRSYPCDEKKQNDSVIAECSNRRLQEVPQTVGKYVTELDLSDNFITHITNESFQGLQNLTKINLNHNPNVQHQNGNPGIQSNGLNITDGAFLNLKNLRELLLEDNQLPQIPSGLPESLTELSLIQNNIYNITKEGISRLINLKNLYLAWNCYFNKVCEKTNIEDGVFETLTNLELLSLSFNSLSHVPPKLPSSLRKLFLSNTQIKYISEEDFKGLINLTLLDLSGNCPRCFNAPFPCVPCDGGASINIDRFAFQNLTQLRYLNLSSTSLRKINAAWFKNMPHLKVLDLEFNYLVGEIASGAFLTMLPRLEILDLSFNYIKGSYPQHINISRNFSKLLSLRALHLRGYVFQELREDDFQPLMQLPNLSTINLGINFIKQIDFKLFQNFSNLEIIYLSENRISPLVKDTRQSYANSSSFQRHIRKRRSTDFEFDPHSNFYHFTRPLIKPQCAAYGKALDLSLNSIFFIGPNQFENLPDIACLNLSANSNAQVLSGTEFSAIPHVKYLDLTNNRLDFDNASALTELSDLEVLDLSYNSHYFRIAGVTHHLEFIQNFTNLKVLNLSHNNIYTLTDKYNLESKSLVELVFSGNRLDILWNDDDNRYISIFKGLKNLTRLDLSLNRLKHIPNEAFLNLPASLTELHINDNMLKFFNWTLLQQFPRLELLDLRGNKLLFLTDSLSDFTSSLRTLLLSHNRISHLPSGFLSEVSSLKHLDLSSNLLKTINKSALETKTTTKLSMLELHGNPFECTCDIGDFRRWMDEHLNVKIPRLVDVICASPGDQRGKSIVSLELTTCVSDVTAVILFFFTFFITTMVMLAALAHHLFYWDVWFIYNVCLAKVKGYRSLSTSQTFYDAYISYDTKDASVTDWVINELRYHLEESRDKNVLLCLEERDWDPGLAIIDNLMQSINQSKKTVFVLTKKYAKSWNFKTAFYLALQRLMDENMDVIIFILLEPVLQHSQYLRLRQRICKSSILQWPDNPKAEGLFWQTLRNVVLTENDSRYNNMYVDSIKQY

| SMILES | IC50 (human TLR8; [1]) | IC50 (human TLR9; [2]) | IC50 (human TLR7) | IC50 (human TLR8; [3]) | IC50 (human TLR9; [4]) |
| --- | --- | --- | --- | --- | --- |
| Cc1c(-c2[nH]c3ccc(N4C[C@@H](C)N(C(=O)CCN5CC6(CCO6)C5)C[C@@H]4C)nc3c2C(C)C)cn2ncnc2c1C [Example 958] | 2.3 nM | 11200 nM | 0.27 nM | – | – |
| Cc1c(-c2[nH]c3ccc(N4C[C@@H](C)N(C(=O)CCN5CC6(C5)CS(=O)(=O)C6)C[C@@H]4C)nc3c2C(C)C)cn2ncnc2c1C [Example 959] | 0.29 nM | 7680 nM | 1.4 nM | – | – |
| Cc1c(-c2[nH]c3ccc(N4C[C@@H](C)N(C(=O)CCN5CC6(CCOC6)C5)C[C@@H]4C)nc3c2C(C)C)cn2ncnc2c1C [Example 960] | 0.32 nM | 3170 nM | 0.77 nM | – | – |
| Cc1c(-c2[nH]c3ccc(N4C[C@@H](C)N(C(=O)CCN5CCC6(COC6)C5)C[C@@H]4C)nc3c2C(C)C)cn2ncnc2c1C [Example 961] | 0.8 nM | 8340 nM | 0.35 nM | – | – |
| Cc1c(-c2[nH]c3ccc(N4C[C@@H](C)N(C(=O)CCN5CCC(F)(F)C5)C[C@@H]4C)nc3c2C(C)C)cn2ncnc2c1C [Example 962] | 17 nM | > 50000 nM | 3.7 nM | – | – |
| Cc1c(-c2[nH]c3ccc(N4C[C@@H](C)N(C(=O)CCN5CCOCC5(C)C)C[C@@H]4C)nc3c2C(C)C)cn2ncnc2c1C [Example 963] | 1.9 nM | 35300 nM | 0.84 nM | – | – |
| [2H]C([2H])([2H])NCCC(=O)N1C[C@H](C)N(c2ccc3[nH]c(-c4cn5ncnc5c(C)c4C)c(C(C)C)c3n2)C[C@H]1C [Example 964] | – | – | 0.53 nM | 0.25 nM | 3100 nM |
| [2H]C([2H])([2H])N(CCC(=O)N1C[C@H](C)N(c2ccc3[nH]c(-c4cn5ncnc5c(C)c4C)c(C(C)C)c3n2)C[C@H]1C)C([2H])([2H])[2H] [Example 965] | – | – | 0.39 nM | 1.1 nM | 6480 nM |
| Cc1c(-c2[nH]c3ccc(N4CCN(C(=O)CN(C)CC5CC5)CC4)nc3c2C(C)C)cn2ncnc2c1C [Example 966] | 1.3 nM | 6020 nM | 2.4 nM | – | – |
| Cc1c(-c2[nH]c3ccc(N4CCN(C(=O)CN(C)C5COC5)CC4)nc3c2C(C)C)cn2ncnc2c1C [Example 967] | 1.2 nM | 38700 nM | 7.9 nM | – | – |
| Cc1c(-c2[nH]c3ccc(N4CCN(C(=O)CNC5CC5)CC4)nc3c2C(C)C)cn2ncnc2c1C [Example 968] | 0.69 nM | 16400 nM | 1.9 nM | – | – |
| Cc1c(-c2[nH]c3ccc(N4CCN(C(=O)CN(C)CCO)CC4)nc3c2C(C)C)cn2ncnc2c1C [Example 969] | 0.12 nM | 7180 nM | 1.3 nM | – | – |
| CCNCC(=O)N1CCN(c2ccc3[nH]c(-c4cn5ncnc5c(C)c4C)c(C(C)C)c3n2)CC1 [Example 970] | 0.92 nM | 10700 nM | 3.1 nM | – | – |
| Cc1c(-c2[nH]c3ccc(N4CCN(C(=O)CN5CCC(CO)CC5)CC4)nc3c2C(C)C)cn2ncnc2c1C [Example 971] | 0.85 nM | 9250 nM | 3 nM | – | – |
| Cc1c(-c2[nH]c3ccc(N4C5CNCC4COC5)nc3c2C(C)C)cn2ncnc2c1C [Example 972] | 3.1 nM | 6920 nM | 3.3 nM | – | – |
| Cc1c(-c2[nH]c3ccc(N4CC5CCC(C4)N5)nc3c2C(C)C)cn2ncnc2c1C [Example 973] | 1.7 nM | 15800 nM | 6.7 nM | – | – |
| Cc1c(-c2[nH]c3ccc(N4C[C@H]5CCC[C@H](C4)N5)nc3c2C(C)C)cn2ncnc2c1C [Example 974] | 0.71 nM | 3920 nM | 1.1 nM | – | – |
| Cc1c(-c2[nH]c3ccc(N4C[C@@H](C)N[C@@H](C)C4)nc3c2C(C)C)cn2ncnc2c1C [Example 976] | 0.96 nM | 13400 nM | 2.5 nM | – | – |
| Cc1c(-c2[nH]c3ccc(N4CCNC(C)C4C)nc3c2C(C)C)cn2ncnc2c1C (stereo not drawn) [Example 977] | 2.1 nM | 8600 nM | 1.4 nM | – | – |
| Cc1c(-c2[nH]c3ccc(N4C5CNCC4C5)nc3c2C(C)C)cn2ncnc2c1C [Example 978] | 1.8 nM | 11500 nM | 11 nM | – | – |
| Cc1c(-c2[nH]c3ccc(N4[C@@H]5CC[C@H]4CNC5)nc3c2C(C)C)cn2ncnc2c1C [Example 979] | 0.8 nM | 4290 nM | 1.1 nM | – | – |
| Cc1c(-c2[nH]c3ccc(N4C[C@H]5CC[C@@H]4CN5)nc3c2C(C)C)cn2ncnc2c1C [Example 980] | 2.3 nM | 6270 nM | 2.2 nM | – | – |
| Cc1c(-c2[nH]c3ccc(N4C[C@H]5C[C@@H]4CN5)nc3c2C(C)C)cn2ncnc2c1C [Example 981] | 0.51 nM | 3070 nM | 0.95 nM | – | – |
| Cc1c(-c2[nH]c3ccc(N4CCNCC45CC5)nc3c2C(C)C)cn2ncnc2c1C [Example 982] | 20 nM | 32800 nM | 9.8 nM | – | – |
| Cc1c(-c2[nH]c3ccc(N4CCN[C@@H](C(C)C)C4)nc3c2C(C)C)cn2ncnc2c1C [Example 983] | 0.12 nM | 6520 nM | 0.82 nM | – | – |

| SMILES | IC50 (human TLR8; [1]) | IC50 (human TLR9; [2]) | IC50 (human TLR7) | IC50 (human TLR8; [3]) | IC50 (human TLR9; [4]) |
| --- | --- | --- | --- | --- | --- |
| Cc1c(-c2[nH]c3ccc(N4C[C@@H]5CC4CN5)nc3c2C(C)C)cn2ncnc2c1C [Example 984] | 0.85 nM | 3430 nM | 1 nM | – | – |
| Cc1c(-c2[nH]c3ccc(N4C[C@H]5C[C@@H](C4)N5)nc3c2C(C)C)cn2ncnc2c1C [Example 985] | 1.1 nM | 3900 nM | 1.6 nM | – | – |
| CCC[C@H]1CNCCN1c1ccc2[nH]c(-c3cn4ncnc4c(C)c3C)c(C(C)C)c2n1 [Example 986] | 0.38 nM | 2820 nM | 0.63 nM | – | – |
| Cc1c(-c2[nH]c3ccc(N4CCN[C@H](CO)C4)nc3c2C(C)C)cn2ncnc2c1C [Example 987] | 0.5 nM | 11300 nM | 2.9 nM | – | – |
| CC[C@H]1CNCCN1c1ccc2[nH]c(-c3cn4ncnc4c(C)c3C)c(C(C)C)c2n1 [Example 988] | 0.23 nM | 3770 nM | 0.36 nM | – | – |
| Cc1c(-c2[nH]c3ccc(N4CCN[C@@H](C)C4)nc3c2C(C)C)cn2ncnc2c1C [Example 989] | 0.31 nM | 7100 nM | 0.69 nM | – | – |
| Cc1c(-c2[nH]c3ccc(N4C[C@H](C)NC[C@H]4C)nc3c2C(C)C)cn2ncnc2c1C [Example 990] | 4 nM | 6020 nM | 0.8 nM | – | – |
| Cc1c(-c2[nH]c3ccc(N4C[C@H](C)NC[C@@H]4C)nc3c2C(C)C)cn2ncnc2c1C [Example 991] | 0.32 nM | 5990 nM | 0.27 nM | – | – |
| Cc1c(-c2[nH]c3ccc(N4CCNC[C@@H]4C(C)C)nc3c2C(C)C)cn2ncnc2c1C [Example 992] | 0.72 nM | 6310 nM | 0.66 nM | – | – |
| Cc1c(-c2[nH]c3ccc(N4C[C@@H](C)NC[C@H]4C)nc3c2C(C)C)cn2ncnc2c1C [Example 993] | 1.5 nM | 7230 nM | 0.82 nM | – | – |
| Cc1c(-c2[nH]c3ccc(N4CCN[C@H](CO)C4)nc3c2C(C)C)cn2ncnc2c1C [Example 994] | 3.4 nM | 11800 nM | 13 nM | – | – |
| CNC1CCN(c2ccc3[nH]c(-c4cn5ncnc5c(C)c4C)c(C(C)C)c3n2)CC1 [Example 995] | 0.48 nM | 7020 nM | 0.56 nM | – | – |
| Cc1c(-c2[nH]c3ccc(N4CCC(N(C)CC5(C)COC5)CC4)nc3c2C(C)C)cn2ncnc2c1C [Example 996] | 0.4 nM | 11000 nM | 1.3 nM | – | – |
| Cc1c(-c2[nH]c3ccc(N4CCC(N(C)CC(=O)N(C)C)CC4)nc3c2C(C)C)cn2ncnc2c1C [Example 997] | 2.4 nM | 13600 nM | 2.4 nM | – | – |
| Cc1c(-c2[nH]c3ccc(N4CCC(N(C)CCS(C)(=O)=O)CC4)nc3c2C(C)C)cn2ncnc2c1C [Example 998] | 0.44 nM | 20000 nM | 1.9 nM | – | – |
| Cc1c(-c2[nH]c3ccc(N4CC(NC(C)C)C4)nc3c2C(C)C)cn2ncnc2c1C [Example 999] | 2.1 nM | 10500 nM | 7.5 nM | – | – |
| COCCNC1CN(c2ccc3[nH]c(-c4cn5ncnc5c(C)c4C)c(C(C)C)c3n2)C1 [Example 1000] | 3.2 nM | 6440 nM | 18 nM | – | – |
| Cc1c(-c2[nH]c3ccc(NCCN)nc3c2C(C)C)cn2ncnc2c1C [Example 1001] | 40 nM | 11700 nM | 70 nM | – | – |
| Cc1c(-c2[nH]c3ccc(NCCNC(=O)CN(C)C)nc3c2C(C)C)cn2ncnc2c1C [Example 1002] | 4.6 nM | 1100 nM | 10 nM | – | – |
| Cc1c(-c2[nH]c3ccc(N4CC5(C4)CN(C(C)C)C5)nc3c2C(C)C)cn2ncnc2c1C [Example 1003] | 3.7 nM | 3160 nM | 1.8 nM | – | – |
| Cc1c(-c2[nH]c3ccc(N4CC5(CN(CC(C)(C)O)C5)C4)nc3c2C(C)C)cn2ncnc2c1C [Example 1004] | 1.3 nM | 2790 nM | 2.1 nM | – | – |
| Cc1c(-c2[nH]c3ccc(N4CC5(CN(CCC(N)=O)C5)C4)nc3c2C(C)C)cn2ncnc2c1C [Example 1005] | 7.4 nM | 1660 nM | 4.4 nM | – | – |
| Cc1c(-c2[nH]c3ccc(N4CC5(CN(C(=O)CCN(C)C)C5)C4)nc3c2C(C)C)cn2ncnc2c1C [Example 1006] | 9.6 nM | 339 nM | 3.6 nM | – | – |
| Cc1c(-c2[nH]c3ccc(N4CC5(CN(CCCS(C)(=O)=O)C5)C4)nc3c2C(C)C)cn2ncnc2c1C [Example 1007] | 4 nM | 2340 nM | 3.2 nM | – | – |
| Cc1c(-c2[nH]c3ccc(N4CC5(CN(CC#N)C5)C4)nc3c2C(C)C)cn2ncnc2c1C [Example 1008] | 32 nM | 13300 nM | 15 nM | – | – |
